Test results from patent US5698411A, “Method for determining activity of enzymes in metabolically active whole cells” (priority 1995, dated 1997).
Numbered stars: 1 amine (or outer) side, 2 acyl side, 3 side chain; on linkers, the order of the positions; unused ones are H or OH. Bridge positions count the residues as written; N and C are the ends. Peptide text beside a SMILES is read from it. I, II: the chains in the order shown. Rhodamine110 = O=C1OC2(c3ccc(N[*:1])cc3Oc3cc(N[*:2])ccc32)c2ccccc21

Assays:
Format in all cases: cell-based, human
granulocytes [1] = assay: enzyme activity with fluorogenic substrate, normal granulocytes (Table 3A)
[2] = tested on: metabolically active whole cell; assay: substrate panel in normals and HIV + patients, TB infection (Table 4); parameters: unit not given here
Protocol: A panel of assay compounds are assembled consisting of Ala-aminopeptidase and Lys-aminopeptidase, Dipeptidyl peptidase IV (Ala-Ala)2 rhodamine 110 and Cathepsin D to indicate possible TB infection in AIDS related cases.
A panel Of enzymatic substrates is performed consisting of Ala-aminopeptidase and Lys-aminopeptidase, Dipeptidyl peptidase IV (Ala-Ala)2 rhodamine 110 and Cathepsin D to indicate possible TB infection in AIDS related cases.

lymphocytes [3] = assay: aberrant enzyme activities in febrile children, lymphocytes (Table 7)
granulocytes [4] = assay: aberrant enzyme activities in febrile children, granulocytes (Table 7)
lymphocytes [5] = assay: enzyme activity with fluorogenic substrate, normal lymphocytes (Table 3A)
monocytes [6] = assay: aberrant enzyme activities in febrile children, monocytes (Table 7)
monocytes [7] = assay: enzyme activity with fluorogenic substrate, normal monocytes (Table 3A)

Row | SMILES | NORMAL LEUKOCYTE ENZYME ACTIVITY GRANS Mean (granulocytes [1]) | aberrant enzyme activity, LYMPHS (lymphocytes [3]; P88 Enteritis) | aberrant enzyme activity, LYMPHS (lymphocytes [3]; P89 Viral Stomatitis) | aberrant enzyme activity, LYMPHS (lymphocytes [3]; P92 Adenitis) | aberrant enzyme activity, LYMPHS (lymphocytes [3]; P95 Viral Syndrome) | aberrant enzyme activity, LYMPHS (lymphocytes [3]; P96 Viral Syndrome) | aberrant enzyme activity, LYMPHS (lymphocytes [3]; P97 Pyelonephritis) | aberrant enzyme activity, LYMPHS (lymphocytes [3]; P99 Viral Syndrome) | aberrant enzyme activity, LYMPHS (lymphocytes [3]; P101 Fever -- Unknown Origin) | aberrant enzyme activity, LYMPHS (lymphocytes [3]; P102 UTI) | aberrant enzyme activity, LYMPHS (lymphocytes [3]; P103 Viral Syndrome) | aberrant enzyme activity, GRANS (granulocytes [4]; P88 Enteritis) | aberrant enzyme activity, GRANS (granulocytes [4]; P89 Viral Stomatitis) | aberrant enzyme activity, GRANS (granulocytes [4]; P92 Adenitis) | aberrant enzyme activity, GRANS (granulocytes [4]; P95 Viral Syndrome) | aberrant enzyme activity, GRANS (granulocytes [4]; P96 Viral Syndrome) | aberrant enzyme activity, GRANS (granulocytes [4]; P97 Pyelonephritis) | aberrant enzyme activity, GRANS (granulocytes [4]; P102 UTI) | aberrant enzyme activity, MONOS (monocytes [6]; P88 Enteritis) | aberrant enzyme activity, MONOS (monocytes [6]; P97 Pyelonephritis) | also measured
1 | CC(C)[C@H](N)C(=O)N[C@@H](CCCCN)C(=O)Nc1ccc2c(c1)Oc1cc(NC(=O)[C@H](CCCCN)NC(=O)[C@@H](N)C(C)C)ccc1C21OC(=O)c2ccccc21 [VK, (Val-Lys)2 Rho 110] | 5.10 | .smallcircle. | .smallcircle. | .smallcircle. | - (>0.25 Decrease over normal range) | .smallcircle. | .smallcircle. | + (>0.25 Increase over normal range) | .smallcircle. | .smallcircle. | .smallcircle. | - (>0.25 Decrease over normal range) | - (>0.25 Decrease over normal range) | .smallcircle. | - (>0.25 Decrease over normal range) | .smallcircle. | + (>0.25 Increase over normal range) | .smallcircle. | - (>0.25 Decrease over normal range) | .smallcircle. | MEAN DELTA FL ([2]; HIV + PATIENTS): 17.7; MEAN DELTA FL ([2]; NORMALS): 22.7; aberrant enzyme activity, GRANS (granulocytes [4]; P99 Viral Syndrome): + (>0.25 Increase over normal range); aberrant enzyme activity, GRANS (granulocytes [4]; P101 Fever -- Unknown Origin): .smallcircle.; aberrant enzyme activity, GRANS (granulocytes [4]; P103 Viral Syndrome): .smallcircle.; NORMAL LEUKOCYTE ENZYME ACTIVITY LYMPHS Mean (lymphocytes [5]): 1.87; aberrant enzyme activity, MONOS (monocytes [6]; P89 Viral Stomatitis): - (>0.25 Decrease over normal range); aberrant enzyme activity, MONOS (monocytes [6]; P92 Adenitis): .smallcircle.; aberrant enzyme activity, MONOS (monocytes [6]; P95 Viral Syndrome): .smallcircle.; aberrant enzyme activity, MONOS (monocytes [6]; P96 Viral Syndrome): .smallcircle.; aberrant enzyme activity, MONOS (monocytes [6]; P99 Viral Syndrome): + (>0.25 Increase over normal range); aberrant enzyme activity, MONOS (monocytes [6]; P101 Fever -- Unknown Origin): .smallcircle.; aberrant enzyme activity, MONOS (monocytes [6]; P102 UTI): - (>0.25 Decrease over normal range); aberrant enzyme activity, MONOS (monocytes [6]; P103 Viral Syndrome): + (>0.25 Increase over normal range)
2 | CC(=O)Oc1ccc2c(c1)Oc1cc(OC(C)=O)ccc1C21OC(=O)c2ccccc21 [FDA-NAF, fluorescein diacetate, reference compound] | – | .smallcircle. | – | – | – | – | .smallcircle. | .smallcircle. | – | .smallcircle. | – | .smallcircle. | – | – | – | – | .smallcircle. | .smallcircle. | .smallcircle. | .smallcircle. | NORMAL LEUKOCYTE ENZYME ACTIVITY LYMPHS Mean (lymphocytes [5]): 17.98
3 | N=C(N)NCCC[C@H](N)C(=O)NCC(=O)N[C@@H](CCC(=O)O)C(=O)N[C@@H](CO)C(=O)Nc1ccc2c(c1)Oc1cc(NC(=O)[C@H](CO)NC(=O)[C@H](CCC(=O)O)NC(=O)CNC(=O)[C@@H](N)CCCNC(=N)N)ccc1C21OC(=O)c2ccccc21 (stereo partly drawn) [RGES, (Arg-Gly-Glu-Ser)2 Rho 110] (I: H-RGES / II: H-RGES; linker I:C-II:C via Rhodamine110) | 3.96 | .smallcircle. | .smallcircle. | .smallcircle. | .smallcircle. | + (>0.25 Increase over normal range) | .smallcircle. | .smallcircle. | .smallcircle. | .smallcircle. | .smallcircle. | .smallcircle. | + (>0.25 Increase over normal range) | + (>0.25 Increase over normal range) | .smallcircle. | .smallcircle. | .smallcircle. | .smallcircle. | - (>0.25 Decrease over normal range) | .smallcircle. | aberrant enzyme activity, GRANS (granulocytes [4]; P99 Viral Syndrome): .smallcircle.; aberrant enzyme activity, GRANS (granulocytes [4]; P101 Fever -- Unknown Origin): .smallcircle.; aberrant enzyme activity, GRANS (granulocytes [4]; P103 Viral Syndrome): .smallcircle.; aberrant enzyme activity, MONOS (monocytes [6]; P89 Viral Stomatitis): .smallcircle.; aberrant enzyme activity, MONOS (monocytes [6]; P92 Adenitis): + (>0.25 Increase over normal range); aberrant enzyme activity, MONOS (monocytes [6]; P95 Viral Syndrome): .smallcircle.; aberrant enzyme activity, MONOS (monocytes [6]; P96 Viral Syndrome): .smallcircle.; aberrant enzyme activity, MONOS (monocytes [6]; P99 Viral Syndrome): .smallcircle.; aberrant enzyme activity, MONOS (monocytes [6]; P101 Fever -- Unknown Origin): - (>0.25 Decrease over normal range); aberrant enzyme activity, MONOS (monocytes [6]; P102 UTI): .smallcircle.; aberrant enzyme activity, MONOS (monocytes [6]; P103 Viral Syndrome): .smallcircle.; NORMAL LEUKOCYTE ENZYME ACTIVITY MONOS Mean (monocytes [7]): 8.37
